Results reported in ChEMBL document CHEMBL5661943, “ASAP - In vitro antiviral effect” (2024).

Key:
[1] = test system: dengue virus type 2; test: Functional assay to measure dose dependent changes in antiviral-drug inhibitory efficacy against Dengue virus type 2 New Guinea C in Vero E6 miRFP670 cells (cotreated with P-gp inhibitor, CP100356). Cells are treated with antiviral candidates that are serially diluted, following infection, cells are fixed. EC50 is reported via analysis of fluorescence intensity using high-content imager. The …; assay type: organism-based, Chlorocebus sabaeus, Vero C1008; settings: Dengue virus
[2] = test system: Zika virus; test: Functional CPE-based assay to measure dose dependent changes in antiviral-drug inhibitory efficacy against Zika virus MR766 in Vero E6 miRFP670 cells (cotreated with P-gp inhibitor, CP100356). Cells are treated with antiviral candidates that are serially diluted. EC50 is reported via analysis of MTS assay as a readout of CPE. The assay has been performed by KU Leuven.; assay type: organism-based, Chlorocebus sabaeus, Vero C1008; settings: Zika virus

CC(=Cc1cc(Cl)cc(NC(=O)OCc2ccccc2)c1)c1cccc(CN)c1
EC50 ([1]; Vero C1008): > 1.56 µM | EC90 ([1]; Vero C1008, Maximum measured 159.566 %, Minimum measured 81.442 %, P-gp concentration 500 nM, P-gp inhibitor CP100356): > 1.56 µM

C[C@H]1NCc2cc(NC(=O)c3cc(F)cc4[nH]ncc34)ccc21
EC50 ([2]; Vero C1008): > 50 µM | EC90 ([2]; Vero C1008, Baseline response 0 %, Hill slope 1.233, Maximum measured 13.741 %, Maximum response 100 %, Minimum measured -1.755 %, P-gp concentration 500 nM, R squared 0.661, P-gp inhibitor CP100356): > 50 µM

C[C@@]1(O)[C@H](O)[C@@H](CO)O[C@H]1n1ccc(N)nc1=O
EC50 ([1]; Vero C1008): 116 µM | EC90 ([1]; Vero C1008, Baseline response 0 %, Hill slope -2.692, Maximum measured 107.888 %, Maximum response 100 %, Minimum measured 21.977 %, P-gp concentration 500 nM, R squared 0.958, P-gp inhibitor CP100356): > 200 µM

NCc1cccc(-c2csc3cc(C(=O)Nc4ccc5c(c4)CNC5)ccc23)c1
EC50 ([2]; Vero C1008): 2.4 µM | EC90 ([2]; Vero C1008, Baseline response 0 %, Hill slope 1.279, Maximum measured 60.824 %, Maximum response 100 %, Minimum measured 10.172 %, P-gp concentration 500 nM, R squared 0.942, P-gp inhibitor CP100356): > 3.12 µM

N[C@H]1CC[C@H](c2ccc(NC(=O)c3cc(Cl)cc(NC(=O)OCc4ccccc4)c3)cc2)C1
EC50 ([1]; Vero C1008): 1.49 µM | EC90 ([1]; Vero C1008, Baseline response 0 %, Hill slope -16.959, Maximum measured 155.273 %, Maximum response 100 %, Minimum measured 29.767 %, P-gp concentration 500 nM, R squared 0.495, P-gp inhibitor CP100356): > 1.56 µM

O=C(Nc1cc(Cl)cc([C@H]2C[C@@H]2c2cccc(-c3nnn[nH]3)c2)c1)OCc1ccccc1
EC50 ([1]; Vero C1008): > 25 µM | EC90 ([1]; Vero C1008, Maximum measured 174.938 %, Minimum measured 87.593 %, P-gp concentration 500 nM, P-gp inhibitor CP100356): > 25 µM

O=C(Nc1ccc2c(c1)CNC2)c1cc(Cl)cc(N2CCCC2)c1
EC50 ([2]; Vero C1008): > 50 µM | EC90 ([2]; Vero C1008, Maximum measured 3.676 %, Minimum measured -16.143 %, P-gp concentration 500 nM, P-gp inhibitor CP100356): > 50 µM

NCc1ccc2c(c1)[C@H]1OCCC[C@H]1[C@H](c1cc(Cl)cc(NC(=O)OCc3ccccc3)c1)N2
EC50 ([1]; Vero C1008): 1.9 µM | EC90 ([1]; Vero C1008, Baseline response 0 %, EC90 CI (lower) 1.087 uM, EC90 CI (upper) 1.673 uM, Hill slope -6.376, Maximum measured 104.423 %, Maximum response 100 %, Minimum measured 0.619 %, P-gp concentration 500 nM, R squared 0.968, P-gp inhibitor CP100356): 2.69 µM

CNC(=O)[C@H](Nc1cc(Cl)cc(NC(=O)OCc2ccccc2)c1)c1cccc(CN)c1
EC50 ([1]; Vero C1008): 7.19 µM | EC90 ([1]; Vero C1008, Baseline response 0 %, EC90 CI (lower) 3.139 uM, EC90 CI (upper) 9.78 uM, Hill slope -8.413, Maximum measured 116.634 %, Maximum response 100 %, Minimum measured 2.553 %, P-gp concentration 500 nM, R squared 0.885, P-gp inhibitor CP100356): 9.34 µM

Clc1cccc([C@H](C#Cc2ccccc2)Nc2cccc(-c3nn[nH]n3)c2)c1
EC50 ([1]; Vero C1008): > 6.25 µM | EC90 ([1]; Vero C1008, Maximum measured 160.53 %, Minimum measured 108.244 %, P-gp concentration 500 nM, P-gp inhibitor CP100356): > 6.25 µM

O=C(Nc1cc(Cl)cc(C(=O)Nc2ccc([C@@H]3C[C@H]3C(=O)O)cc2)c1)OCc1ccccc1
EC50 ([1]; Vero C1008): > 50 µM | EC90 ([1]; Vero C1008, Maximum measured 124.209 %, Minimum measured 92.524 %, P-gp concentration 500 nM, P-gp inhibitor CP100356): > 50 µM

O=C(Nc1cc(Cl)cc(CNc2cccc(-c3nn[nH]n3)c2)c1)OCc1ccccc1
EC50 ([1]; Vero C1008): > 25 µM | EC90 ([1]; Vero C1008, Maximum measured 175.327 %, Minimum measured 92.337 %, P-gp concentration 500 nM, P-gp inhibitor CP100356): > 25 µM

C=CC[C@H](Nc1cc(Cl)cc(NC(=O)OCc2ccccc2)c1)c1cccc(CN)c1
EC50 ([1]; Vero C1008): 0.546 µM | EC90 ([1]; Vero C1008, Baseline response 0 %, EC90 CI (lower) 0.029 uM, EC90 CI (upper) 0.719 uM, Hill slope -1.654, Maximum measured 56.301 %, Maximum response 100 %, Minimum measured 0.945 %, P-gp concentration 500 nM, R squared 0.693, P-gp inhibitor CP100356): 2.06 µM

C=CC[C@H]1NCc2cc(NC(=O)c3cc(Cl)cc4[nH]ncc34)ccc21
EC50 ([2]; Vero C1008): > 50 µM | EC90 ([2]; Vero C1008, Baseline response 0 %, Hill slope 0.168, Maximum measured 60.303 %, Maximum response 100 %, Minimum measured -6.598 %, P-gp concentration 500 nM, R squared 0.022, P-gp inhibitor CP100356): > 50 µM

O=C(O)Cn1ncc2cc(-c3cc(Cl)cc(NC(=O)OCc4ccccc4)c3)ccc21
EC50 ([1]; Vero C1008): > 50 µM | EC90 ([1]; Vero C1008, Maximum measured 125.945 %, Minimum measured 96.066 %, P-gp concentration 500 nM, P-gp inhibitor CP100356): > 50 µM

C=CC[C@H](Nc1cccc(-c2nn[nH]n2)c1)c1cc(Cl)cc(NC(=O)OCc2ccccc2)c1
EC50 ([1]; Vero C1008): < 0.391 µM | EC90 ([1]; Vero C1008, Baseline response 0 %, EC90 CI (lower) 0.009 uM, EC90 CI (upper) 0.062 uM, Hill slope -1.268, Maximum measured 19.733 %, Maximum response 100 %, Minimum measured 0.468 %, P-gp concentration 500 nM, R squared 0.944, P-gp inhibitor CP100356): 0.74 µM

N#C[C@H](Nc1cc(Cl)cc(NC(=O)OCc2ccccc2)c1)c1ccc(-c2nn[nH]n2)cc1
EC50 ([1]; Vero C1008): > 50 µM | EC90 ([1]; Vero C1008, Baseline response 0 %, Hill slope -0.236, Maximum measured 132.412 %, Maximum response 100 %, Minimum measured 19.2 %, P-gp concentration 500 nM, R squared 0.02, P-gp inhibitor CP100356): > 50 µM

O=C(Nc1cc(Cl)cc([C@H](C#CCO)Nc2ccc(-c3nn[nH]n3)cc2)c1)OCc1ccccc1
EC50 ([1]; Vero C1008): > 50 µM | EC90 ([1]; Vero C1008, Maximum measured 120.318 %, Minimum measured 85.942 %, P-gp concentration 500 nM, P-gp inhibitor CP100356): > 50 µM

CC1(C)NCc2cc(NC(=O)c3cc(F)cc4[nH]ncc34)ccc21
EC50 ([2]; Vero C1008): > 50 µM | EC90 ([2]; Vero C1008, Maximum measured -0.426 %, Minimum measured -7.479 %, P-gp concentration 500 nM, P-gp inhibitor CP100356): > 50 µM

O=C(Nc1ccc2c(c1)CNC2)c1cc(Cl)cc2[nH]c(-c3ccccc3)nc12
EC50 ([2]; Vero C1008): > 50 µM | EC90 ([2]; Vero C1008, Baseline response 0 %, Hill slope 1.72, Maximum measured 10.819 %, Maximum response 100 %, Minimum measured -5.769 %, P-gp concentration 500 nM, R squared 0.199, P-gp inhibitor CP100356): > 50 µM

O=C(Nc1cc(Cl)cc(C(=O)Nc2ccc3c(c2)CCNC3)c1)OCc1ccccc1
EC50 ([1]; Vero C1008): > 1.56 µM | EC90 ([1]; Vero C1008, Maximum measured 159.578 %, Minimum measured 136.105 %, P-gp concentration 500 nM, P-gp inhibitor CP100356): > 1.56 µM

COc1ccc(S(=O)(=O)Nc2cc(F)c(Cl)cc2C(=O)NCC(C)C)cc1
EC50 ([1]; Vero C1008): 5.86 µM | EC90 ([1]; Vero C1008): 6.67 µM

CNC(=O)[C@H](Nc1cccc(CN)c1)c1cc(Cl)cc(NC(=O)OCc2ccccc2)c1
EC50 ([1]; Vero C1008): 7.81 µM | EC90 ([1]; Vero C1008, Baseline response 0 %, EC90 CI (lower) 4.909 uM, EC90 CI (upper) 7.205 uM, Hill slope -8.054, Maximum measured 105.221 %, Maximum response 100 %, Minimum measured 2.373 %, P-gp concentration 500 nM, R squared 0.934, P-gp inhibitor CP100356): 10.3 µM

O=C(Nc1ccc2c(c1)CNC2)c1cc(Cl)cc2[nH]c(-c3cccc(F)c3)nc12
EC50 ([2]; Vero C1008): > 50 µM | EC90 ([2]; Vero C1008, Baseline response 0 %, Hill slope 0.814, Maximum measured 40.434 %, Maximum response 100 %, Minimum measured 0.118 %, P-gp concentration 500 nM, R squared 0.904, P-gp inhibitor CP100356): > 50 µM

NCc1ccc([C@H]2C[C@@H]2c2cc(Cl)cc(NC(=O)OCc3ccccc3)c2)cc1
EC50 ([1]; Vero C1008): 2.72 µM | EC90 ([1]; Vero C1008, Baseline response 0 %, Hill slope -3.689, Maximum measured 118.529 %, Maximum response 100 %, Minimum measured 38.173 %, P-gp concentration 500 nM, R squared 0.774, P-gp inhibitor CP100356): > 3.12 µM

O=C(Nc1ccc2c(c1)CN[C@H]2C1CC1)c1cc(F)cc2[nH]ncc12
EC50 ([2]; Vero C1008): 6.28 µM | EC90 ([2]; Vero C1008): 7.09 µM

N[C@H]1Cc2ccc(NC(=O)c3cc(Cl)cc(NC(=O)OCc4ccccc4)c3)cc2C1
EC50 ([1]; Vero C1008): 1.64 µM | EC90 ([1]; Vero C1008, Baseline response 0 %, EC90 CI (lower) 0.187 uM, EC90 CI (upper) 8.327 uM, Hill slope -7.929, Maximum measured 105.944 %, Maximum response 100 %, Minimum measured 3.386 %, P-gp concentration 500 nM, R squared 0.874, P-gp inhibitor CP100356): 2.17 µM

C=C1C[C@H](c2cc(Cl)cc(NC(=O)OCc3ccccc3)c2)[C@@H](c2cccc(-c3nn[nH]n3)c2)C1
EC50 ([1]; Vero C1008): > 6.25 µM | EC90 ([1]; Vero C1008, Maximum measured 124.641 %, Minimum measured 90.066 %, P-gp concentration 500 nM, P-gp inhibitor CP100356): > 6.25 µM

CC(=Cc1cccc(CN)c1)c1cc(Cl)cc(NC(=O)OCc2ccccc2)c1
EC50 ([1]; Vero C1008): > 6.25 µM | EC90 ([1]; Vero C1008, Maximum measured 157.677 %, Minimum measured 102.187 %, P-gp concentration 500 nM, P-gp inhibitor CP100356): > 6.25 µM

CN(C)C(=O)c1cc(CN)cc([C@@H]2C[C@H]2c2cc(Cl)cc(NC(=O)OCc3ccccc3)c2)c1
EC50 ([1]; Vero C1008): 2 µM | EC90 ([1]; Vero C1008, Baseline response 0 %, Hill slope -4.597, Maximum measured 117.075 %, Maximum response 100 %, Minimum measured 13.909 %, P-gp concentration 500 nM, R squared 0.926, P-gp inhibitor CP100356): > 3.12 µM
